Data from patent publication US9296760B2, “Antibacterial compounds” (JANSSEN SCIENCES IRELAND UC, priority 2012, dated 2016).
≈ marks a conversion by molar mass, not a printed value.

How the values were obtained:
Cytotoxicity MTT assay = format: cell-based, Human; conditions: human, HelaM cells, read-out: HELAM (222.125) CC50
Method: (§1) Cytotoxicity of the compounds was evaluated using the MTT assay. Human HelaM cells grown in 96-well plates were exposed to serial dilutions of the tested compounds (final volume of 0.2 ml) and incubated for 72 hours at 37° C. and 5% CO2 Inhibitors are typically varied over the range of 25 to 0.8 μM. The final DMSO concentration in the assay is 0.5%. MTT (3-(4,5-Dimethylthiazol-2-yl)-2,5-diphenyltetrazolium bromide, a tetrazole) was added and reduced to purple formazan only in living cells. Solubilization of the formazan crystals was achieved by adding 100 μl 2-propanol. Cell viability was determined by measuring the absorbance of the reduced formazan, giving a purple color, at 540 nm and 690 nm. The absorbance measured at 690 nm was automatically subtracted from the absorbance at 540 nm, to eliminate the effects of non-specific absorption. The percent cytotoxicity achieved by the compounds was calculated according to standard methods. Cytotoxicity is reported as CC50, the concentration that causes a 50% reduction in cell viability.
(§2) The results are depicted in the table(s) below (HELAM).

[1] = system: Staphylococcus aureus ATCC 29213; assay: Antibacterial susceptibility testing, IC90 determination (broth microdilution, resazurin); format: cell-based; conditions: 90% inhibitory concentration for bacterial growth; for IC90: Staphylococcus aureus, ATCC29213, S. aureus ATCC 29213, read-out: STA (361.159) IC90; for STA (361.159) IC90: S. aureus ATCC 29213
Method: Y.2 In Vitro Method for Testing Compounds for Antibacterial Activity Against Various Bacterial Strains
Preparation of Bacterial Suspensions for Susceptibility Testing
The following bacteria were used: Staphylococcus aureus ATCC 29213, methicillin-resistant Staphylococcus aureus (MRSA) ATCC 700788 and Escherichia coli ATCC 35218. The bacteria used in this study were grown overnight in flasks containing 100 ml Mueller-Hinton broth (Difco cat. nr. 0757-17) in sterile de-ionized water, with shaking, at 37° C. Stocks were store at −70° C. until use.
Bacteria were incubated on a tryptic soy agar plate containing 5% sheep blood (Becton Dickinson cat. nr. 254053) for 18-24 hours at 35° C. in aerobic conditions (first passage). For the second passage, fresh Mueller-Hinton broth is inoculated with 5-10 colonies and grown overnight at 35° C. until turbidity (reaching log-phase) in aerobic conditions is reached. The bacterial suspension is then adjusted to 0.5 McFarland density and further diluted 1:100 in Mueller Hinton broth medium. This is used as inoculum.
The result(s) are depicted the table below (for STA ATCC 29213).
Antibacterial Susceptibility Testing: IC90 Determination
(§3) MIC assays were performed by the broth microdilution method in a 96-well format (flat-bottom microtitre plates) with a final volume of 0.1 ml Mueller Hinton broth containing two-fold serial dilutions of compounds and inoculated with 5×10^5 CFU/ml of bacteria (standard inoculum size according to CLSI guidelines). Inhibitors are typically varied over the range of 63 to 0.49 μM. The final DMSO concentration in the assay was 1.25% (maximum tolerable DMSO concentration=6%). In the assays where the effect of human serum on the activity of the compounds against S. aureus was tested, human serum was added at a final concentration of 10%. The plates were incubated at 35° C. for 16-20 hours. At the end of incubation the bacterial growth was quantified fluorometrically. For this, resazurin was added to all wells and the plates were re-incubated. The incubation time is dependent on the type of bacteria. A change in color from blue to pink indicated the growth of bacteria. The fluorescence was read in computer-controlled fluorometer (Fluoroskan Ascent FL, Labsystems) at an excitation wavelength 540 nm and an emission wavelength of 590 nm. The % growth inhibition achieved by the compounds was calculated according to standard methods. The IC90 (expressed in μg/ml) was defined as the 90% inhibitory concentration for bacterial growth. A panel of reference compounds were simultaneously tested for QC approval.

S. aureus = assay: Antibacterial susceptibility testing, IC90 determination with 10% human serum; format: cell-based, Staphylococcus aureus; conditions: S. aureus with human serum at final concentration of 10%; for IC90: Staphylococcus aureus, read-out: STA + 10% HS (361.169) IC90
Method: as §3, with “Antibacterial Susceptibility Testing: IC90 Determination MIC” for “MIC”, “approval. The results are depicted in the table(s) below (STA+10% HS).” for “approval.”

[2] = target: T1, S. aureus ATCC 29213 FabI (Staphylococcus aureus, UniProt Q6GI75); assay: Staphylococcus aureus FabI enzyme inhibition assay; format: biochemical; conditions: NADH consumption, 30 minutes, read-out: FabI (300.235) IC50 (converted)
T1 sequence (Q6GI75 1-256): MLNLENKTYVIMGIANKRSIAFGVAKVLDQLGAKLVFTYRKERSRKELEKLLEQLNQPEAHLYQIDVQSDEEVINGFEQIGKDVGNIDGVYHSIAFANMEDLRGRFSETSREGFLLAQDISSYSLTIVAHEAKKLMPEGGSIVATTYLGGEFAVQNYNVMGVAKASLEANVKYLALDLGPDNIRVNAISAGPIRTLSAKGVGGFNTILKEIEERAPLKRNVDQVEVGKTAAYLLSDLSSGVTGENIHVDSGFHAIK
Method: Y.1 FabI Enzyme Inhibition: Staphylococcus aureus FabI Enzyme Inhibition Assay
FabI enzyme inhibition assays were carried out in half-area, 384-well microtitre plates. […] The reaction mixtures were incubated for 30 minutes at room temperature and the reaction was stopped by adding 200 mM Tris buffer (pH 9.0) to create a pH-shift. The consumption of NADH was monitored by measuring the change in absorbance at […]. By comparing sample readings to those of negative (absence of compound) and positive (absence of enzyme) controls, the percent inhibition of enzymatic activity of the compounds was determined A best-fit curve is fitted by a minimum of squares method. From this an IC50-value (expressed in μg/ml), resulting in 50% inhibition of enzymatic activity, was obtained.

Human HelaM cells = assay: Cytotoxicity MTT assay; format: cell-based; conditions: 72 hours
Method: as §1, §2

SMILES | melting point [°C] | CC50 at 72 h (Cytotoxicity MTT assay) [µg/mL] | IC90 [1] [µg/mL] | IC90 (S. aureus) [µg/mL] | IC50 [2] [nM] | HELAM (222.125) CC50 (Human HelaM cells) [µg/mL] | STA (361.159) IC90 [1] [µg/mL] | STA + 10% HS (361.169) IC90 (S. aureus) [µg/mL]
O=C(/C=C/c1ccc(NC(=O)C(F)(F)F)nc1)N1CCC=C(c2ccccc2)CC1 [compound 22] | 159 | 8.01 (≈ 19.3 µM) | 11.6 (≈ 27.9 µM) | 12.1 | 1080 |  |  | 
COc1ccc(F)cc1C1=CCCN(C(=O)/C=C/c2cnc3c(c2)CNCC(=O)N3)CC1 [compound 31] | 192 | > 11 | < 0.21 | 0.26 | ~933 |  |  | 
COc1ccc(F)cc1C1=CCCN(C(=O)/C=C/c2cnc3c(c2)COCC(=O)N3)CC1 [compound 32] | 234 | 10.1 (≈ 23.2 µM) | 0.22 (≈ 0.503 µM) | 0.41 | 1260 |  |  | 
CN1CC(=O)Nc2ncc(/C=C/C(=O)N3CCC=C(c4cccs4)CC3)cc2C1 [compound 33] | 125 to 126 | > 10.3 | 0.32 (≈ 0.783 µM) | 0.26 | 1250 |  |  | 
O=C1CNCc2cc(/C=C/C(=O)N3CCC=C(c4ccccc4)CC3)cnc2N1 [compound 34] | 203.18 | > 9.76 | 0.37 (≈ 0.952 µM) | 0.38 | 901 |  |  | 
COc1ccc(F)cc1C1=CCCN(C(=O)/C=C/c2cnc3c(c2)COC(=O)N3)CC1 [compound 35] | 218.22 | 6.56 (≈ 15.5 µM) | 0.38 (≈ 0.897 µM) | 0.54 | ~1020 |  |  | 
O=C1CNCc2cc(/C=C/C(=O)N3CCC=C(c4ccccc4)CC3)cnc2N1 [compound 36] |  |  |  |  | 747 | >19.47 | 0.46 | 0.45
CN1CC(=O)Nc2ncc(/C=C/C(=O)N3CCC=C(c4ccccc4)CC3)cc2C1 [compound 40] |  |  |  |  | 721 | 24.25 | 0.53 | 0.60
O=C1Nc2ncc(/C=C/C(=O)N3CCC=C(c4ccccc4)CC3)cc2CO1 [compound 41] | 244.33 | > 9.43 | 0.6 (≈ 1.6 µM) | 0.67 | 986 |  |  | 
CN1CC(=O)Nc2ncc(/C=C/C(=O)N3CC=C(c4cccs4)CCC3)cc2C1 [compound 43] | 212 to 213 | > 10.3 | 1.13 (≈ 2.77 µM) | 1.32 | 2620 |  |  | 
COc1ccc(CN2CC(=O)Nc3ncc(/C=C/C(=O)N4CCC=C(c5ccccc5)CC4)cc3C2)cc1 [compound 44] | 198 | > 12.8 | 4.8 (≈ 9.44 µM) | 3.64 | ~2810 |  |  | 
O=C1Nc2ncc(/C=C/C(=O)N3CCC=C(c4ccccc4)CC3)cc2CN2CCOCC12 (centres unmarked) [compound 46] | 227.76 | > 11.2 | < 0.22 | 0.53 | 562 |  |  | 
CC(=O)N1CCN2Cc3cc(/C=C/C(=O)N4CCC=C(c5ccccc5)CC4)cnc3NC(=O)C2C1 (centres unmarked) [compound 47] | 208 | 17.6 (≈ 36.3 µM) | 0.25 (≈ 0.515 µM) | 0.44 | 783 |  |  | 
O=C1Nc2ncc(/C=C/C(=O)N3CCC=C(c4ccccc4)CC3)cc2CN2CCSCC12 (centres unmarked) [compound 49] | 224.06 | 4.88 (≈ 10.6 µM) | 0.39 (≈ 0.847 µM) | 1.23 | 1110 |  |  | 
O=C1Nc2ncc(/C=C/C(=O)N3CC=C(c4ccccc4)CCC3)cc2CN2CCOCC12 (centres unmarked) [compound 50] | 220 | 22 (≈ 49.5 µM) | 0.64 (≈ 1.44 µM) | 1.58 | 697 |  |  | 
O=C1Nc2ncc(/C=C/C(=O)N3CC=C(c4ccccc4)CCC3)cc2CN2CCSCC12 (centres unmarked) [compound 51] | 224 | 5.35 (≈ 11.6 µM) | 0.67 (≈ 1.45 µM) | 1.6 | 1110 |  |  | 
O=C1Nc2ncc(/C=C/C(=O)N3CCC=C(c4ccccc4)CC3)cc2CN2CCNCC12 (centres unmarked) [compound 52] | 206 | > 11.1 | 6.56 (≈ 14.8 µM) | 4.75 | 21400 |  |  | 
